Experimental data reported in article PMC2570929 (Emerging Infectious Diseases, 2008).
“Also recorded” adds a separate entry of the source. Read-outs that look alike come from different tables or passages of the source.

Tests used:
[1] = test system: poliovirus Sabin strain 1 (PV1); assay: microbe, parasite or virus in culture; type: cell-based; conditions: for EC50: Enterovirus C, HeLa, 72 h, read-out: EC50 PV1
[2] = test system: poliovirus Sabin strain 3 (PV3); assay: microbe, parasite or virus in culture; type: cell-based; conditions: Enterovirus C, HeLa, 72 h, read-out: EC50 PV3
in vitro = conditions: human
[3] = test system: poliovirus Sabin strains 1, 2, and 3; assay: microbe, parasite or virus in culture; type: cell-based; conditions: for EC50: Enterovirus C, read-out: EC50
[4] = test system: poliovirus Sabin strain 2 (PV2); assay: microbe, parasite or virus in culture; type: cell-based; conditions: Enterovirus C, HeLa, 72 h, read-out: EC50 PV2
[5] = in vivo; cited from earlier work
[6] = cited from earlier work
poliovirus 1 Sabin = type: cell-based
PV = conditions: in vivo; cited from earlier work

C[C@@]1(O)[C@H](O)[C@@H](CO)O[C@H]1n1cnc2c(N)ncnc21 [2'-C-methyladenosine, 2′-C-methyladenosine]
EC50 [1]: 5.5 µM
EC50 [2]: 5.4 ± 0.4 µM
CC50 (in vitro): 84 µM
EC50 [3]: ~5 µM
EC50 [4]: 5.6 ± 0.1 µM

C[C@@]1(O)[C@H](O)[C@@H](CO)O[C@H]1n1ccc(N)nc1=O [2'-C-methylcytidine, 2′-C-methylcytidine]
EC50 [1]: 15 ± 18 µM
EC50 [2]: 3.9 ± 2.3 µM
CC50 (in vitro): > 100 µM
EC50 [3]: 3.9 to 29 µM
EC50 [4]: 29 ± 27 µM

[N-]=[N+]=N[C@]1(CO)O[C@@H](n2ccc(N)nc2=O)[C@H](O)[C@@H]1O [4’-azidocytidine, 4′-azidocytidine]
EC50 [1]: > 100 µM
EC50 [2]: > 100 µM
CC50 (in vitro): > 100 µM
anti-PV activity [3]: inactive; also recorded: devoid of anti-PV activity
EC50 [4]: > 100 µM

C#CCC(C(=O)NC(C=CC(=O)OCC)CC1CCNC1=O)n1cccc(NC(=O)c2cc(C)on2)c1=O (stereo not shown) [Compound 1]
EC50 [1]: 0.26 ± 0.24 µM
CC50 (in vitro): > 100 µM
EC50 [3]: < 1 µM
oral bioavailability [5]: excellent
cytotoxicity (HeLa cells (ATCC CCL-2)): without any signs of cytotoxicity

CC(C)S(=O)(=O)n1c(N)nc2ccc(/C(=N/O)c3ccccc3)cc21 [Enviroxime]
EC50 [1]: 0.2 ± 0.25 µM
EC50 [2]: 0.035 ± 0.029 µM
CC50 (in vitro): 58 ± 6 µM
EC50 [3]: 0.035 to 0.2 µM
EC50 [4]: 0.056 ± 0.02 µM
activity in vivo [6]: weak to moderate
toxicity in vivo [6]: toxicity

OC(c1ccccc1)c1nc2ccccc2[nH]1 (stereo not drawn) [HBB, 2-(α-hydroxybenzyl)-benzimidazole]
EC50 [1]: 300 ± 68 µM
EC50 [2]: 295 ± 88 µM
CC50 (in vitro): > 400 µM
EC50 [3]: 200 to 300 µM
EC50 [4]: 225 ± 128 µM

N#Cc1cc([N+](=O)[O-])ccc1Oc1ccc(Cl)c(Cl)c1 [MDL-860, 2-(3,4-dichlorophenoxy)-5-nitrobenzonitrile]
EC50 [1]: 6 ± 1.6 µM
EC50 [2]: 2.2 ± 1.5 µM
CC50 (in vitro): > 100 µM
EC50 [4]: 3.6 ± 2.2 µM

N=c1ccn(Cc2nc3ccccc3n2-c2ccc(F)cc2)cc1 [MRL-1237]
EC50 [1]: 5.3 ± 0.3 µM
EC50 [2]: 3.8 ± 2.5 µM
CC50 (in vitro): > 100 µM
EC50 [4]: 4.6 ± 1.4 µM

CCOC(=O)c1ccc(OCCC2CCN(c3ccc(C)nn3)CC2)cc1 [Pirodavir (R77975)]
EC50 [1]: 10 ± 1 µM
EC50 [2]: 0.56 ± 0.03 µM
CC50 (in vitro): > 100 µM
EC50 ([3]; HeLa): < 2 µM
metabolic stability after oral administration [5]: metabolic instability
EC50 [4]: 1.7 ± 0.1 µM

CCOC(=O)c1ccc(OCCCC2CCN(c3ccc(C)nn3)CC2)cc1 [Pirodavir analog (R78206)]
Inhibitory activity against PV1 [1]: exhibited inhibitory activity
EC50 [1]: 0.76 ± 0.18 µM
EC50 [2]: 0.11 ± 0.1 µM
CC50 (in vitro): 27 ± 34 µM
EC50 ([3]; HeLa): < 2 µM
EC50 [4]: 0.22 ± 0.19 µM

Cc1cc(CCCOc2c(C)cc(-c3noc(C(F)(F)F)n3)cc2C)on1 [Pleconaril]
Inhibitory activity against PV1 [1]: inactive
EC50 [1]: > 100 µM
EC50 [2]: 0.22 ± 0.15 µM
CC50 (in vitro): 66 ± 6 µM
reduction of infectious virus yield (poliovirus 1 Sabin): not able to reduce infectious virus yield
EC50 ([3]; HeLa): < 2 µM
benefit of treatment in a persistently infected person (PV): no benefit
virus excretion in a child persistently infected with PV (PV): effective in stopping virus excretion
EC50 [4]: 1.1 ± 0.6 µM

NC(=O)c1ncn([C@@H]2O[C@H](CO)[C@@H](O)[C@H]2O)n1 [Ribavirin]
EC50 [1]: 57 ± 13 µM
EC50 [2]: 55 ± 7 µM
CC50 (in vitro): > 100 µM
EC50 [3]: 50 to 60 µM
EC50 [4]: 64 ± 4 µM

CCOC(=O)/C=C/[C@H](C[C@@H]1CCNC1=O)NC(=O)[C@@H](CC(=O)[C@@H](NC(=O)c1cc(C)on1)C(C)C)Cc1ccc(F)cc1 [Rupintrivir]
EC50 [1]: 0.022 ± 0.028 µM
EC50 [2]: 0.0052 ± 0.0046 µM
CC50 (in vitro): > 100 µM
decrease of infectious virus production (poliovirus 1 Sabin): 6 log10
reduction of virus progeny formation (poliovirus 1 Sabin): 10–1,000 fold
cytotoxicity (HeLa cells (ATCC CCL-2)): without any signs of cytotoxicity
EC50 [4]: 0.041 ± 0.024 µM
